Test results taken from US10202385B2, “Use of substituted 2,3-dihydroimidazo[1,2-C]quinazolines” (BAYER INTELLECTUAL PROPERTY GMBH, priority 2011, dated 2019).
Counter-ions that a name gives are not always drawn.

Assays:
Format in all cases: cell-based
breast tumor cell lines = experiment: 72-hour tumor cell proliferation assay, molecular profiling in 24 breast tumor cell lines
Procedure: (§1) In accordance with the invention, the compound were assessed in a cell-based assay that measures the capacity of the compounds to inhibit tumor cell proliferation following a 72-hour drug exposure. Cell viability was conducted by Invitrogen (breast Oncopanel, Invitrogen, USA), or was determined using CellTiter-Glo® Luminescent Cell Viability Assay (Promega) as follows. Cells were plated at 300-5000 cells/well depending on the cell lines or microtiter plates (96- or 384-well) in 100 μL growth medium in 96-well and 20 μL growth medium in 384-well microtiterplate. For each cell line assayed, cells were plated onto a separate plate for determination of luminescence at t=0 hour and t=72 hour time points. Following overnight incubation at 37° C., luminescence values for the t=0 samples were determined. Dose plates for the t=72 hour time points were treated with compounds diluted into growth medium. Cells were then incubated for 72 hours at 37° C. Luminescence values for the t=72 hour samples were determined. For data analysis, briefly, t=0 values were subtracted from those determined for the t=72 hour time points, for both the treated and untreated samples. Percent differences in luminescence between drug-treated and control values were used to determine the percent inhibition of growth.
Using a set of breast cancer cell lines representing differential receptor expression status and genetic alterations of PIK3CA and PTEN, the anti-proliferative and apoptotic effects of Compound A were investigated.

T47D cells [1] = experiment: 72-hour tumor cell proliferation assay in T47D cells; details: T47D (PIK3CA mut)
Procedure: as §1, with “growth. […]” for “growth.”

MDA-MB-468 tumor cells [2] = experiment: Tumor cell proliferation assay in MDA-MB-468 cells; details: PTEN null, EGFR high, Bcl-2 negative MDA-MB-468
Procedure: as §1, with “Dose plates for the t=72 hour time points were treated with compounds diluted into growth medium. Cells were then incubated for 72 hours at 37° C.” left out
The combination effects of PI3K inhibitors and other agent were evaluated using combination index isobologram analysis (Chou et al. Pharmacology Reviews 2006). […]

[3] = system: breast tumor cells (BT-20, BT-474, KPL-4); experiment: Apoptosis induction (PARP cleavage, Caspase 3/7) in breast tumor cells
Procedure: (§2) Tumor cells were seeded in 384-well plates at a concentration of 1000-2500 cells/well/25 μL depending on cell lines. After overnight incubation, cells were treated with compounds (5 μL). Then, Caspase 3/7 activities were determined at 24 to 48 hours post-treatment using Caspase-Glo3/7 assay kits (Promega Cat # G8212).

T47D cells [4] = experiment: Apoptosis induction (PARP cleavage, Caspase-Glo 3/7) in T47D cells
Procedure: as §2
The combination effects of PI3K inhibitors and other agent were evaluated using combination index isobologram analysis (Chou et al. Pharmacology Reviews 2006). The efficacy parameters were the median effect in a 72-hour cell proliferation assay and the 24- or 48-hour Caspase 3/7 activity assay described above. Briefly, cells were plated in 384-well plate with 25 μl medium. […] The corresponding component doses of D1 and D2 at the E(I)C50/E(I)C90 were calculated and used for plotting isobolograms. The multiple drug effect was analyzed as described by Chou et al. (Pharmacology Reviews 2006) and the combination index was calculated using the formula: Combination Index=[D1x]/D1′+[D2x]/D2′ where D1x and D2x refer to the Drug 1 and Drug 2 concentration at EC50/IC50 or EC90/IC90, respectively, in combination; and D1′ and D2′ refer to the EC50/IC50 or EC90/IC90 values of D1 and D2, respectively, as single agents. […]

MDA-MB-468 tumor cells [5] = experiment: Apoptosis induction (PARP cleavage) in MDA-MB-468 cells; details: PTEN null, EGFR high, Bcl-2 negative MDA-MB-468
Procedure: as §2
The cellular expression of the mTORC2 component Rictor was assessed by western blot analysis (A). Induction of PARP cleavage by compound A treatment in combination with inhibition of mTORC1 or mTORC2 (B). shControl and shRictor MDA-MB468 cells were treated with indicated agents for 48 hours, and cleavage of PARP was analyzed. GAPDH was used as an internal protein control.

Compound	IC50 (breast tumor cell lines; breast tumor cells with HER2 expression, n=8 cell lines, proliferation)	IC50 (breast tumor cell lines; breast tumor cells with PIK3CA mutation, n=7 cell lines, proliferation)	IC50 (breast tumor cell lines; wild type PIK3CA and HER2 negative breast cancer cells, n=12, proliferation)	anti-proliferative activity IC50 (T47D cells [1])	inhibition of proliferation (MDA-MB-468 tumor cells [2])	apoptosis induction ([3]; PIK3CA mutant and or HER2 positive breast tumor cells (such as BT20, BT474))	inducing apoptosis ([3]; breast cancer cells expressing HER2 and/or PIK3CA mutation in the absence of Bcl-2 (conclusion))	apoptosis after exposure ([3]; tumor cells that lack Bcl-2 expression (KPL-4, BT-474, BT-20))	apoptosis induction (T47D cells [4]; T47D (PIK3CA mut), high level of Bcl-2)	induction of apoptosis (MDA-MB-468 tumor cells [5])	sensitization to apoptosis in combination with Compound A (T47D cells [4]; T47D cells, ABT-737 combined with Compound A)
COc1c(OCCCN2CCOCC2)ccc2c1N=C(NC(=O)c1cnc(N)nc1)N1CCN=C21 [Compound A, 2-amino-N-[7-methoxy-8-(3-morpholin-4-ylpropoxy)-2,3-dihydroimidazo[1,2-c]quinazolin-5-yl]pyrimidine-5-carboxamide dihydrochloride]	19 nM	17 nM	773 nM	single-digit	insensitive	strong activity	extremely effective	immediately underwent apoptosis	resistant to apoptosis	resistant	–
CN(C)CC[C@H](CSc1ccccc1)Nc1ccc(S(=O)(=O)NC(=O)c2ccc(N3CCN(Cc4ccccc4-c4ccc(Cl)cc4)CC3)cc2)cc1[N+](=O)[O-] [ABT-737, reference compound]	–	–	–	–	–	–	–	–	–	–	sensitized T47D cells to apoptosis
